Reference: publication PMC8301170, “New Benzimidazothiazolone Derivatives as Tyrosinase Inhibitors with Potential Anti-Melanogenesis and Reactive Oxygen Species Scavenging Activities” (Antioxidants, 2021)
“Also recorded” adds a separate entry of the source.

Experiments:
B16F10 cells [1] = assay: Cell viability, EZ-Cytox assay; format: cell-based, mouse; settings: 5–200 µM, 48 h, vs vehicle control
Description: The mouse melanoma cell line B16F10 was acquired from American Type Culture Collection (ATCC®; CCL-6475™) (Manassas, VA, USA) and cultured in DMEM, supplemented with 10% fetal bovine serum (FBS) and 1% penicillin–streptomycin, at 37 °C in a humidified 5% CO2 atmosphere. Cell viability assays were performed with minor modifications, as previously reported. Cell viability was evaluated using the EZ-Cytox assay kit (DaeilLab, Seoul, Korea). The compounds were dissolved in DMSO for the in vitro experiments.
The EZ-Cytox assay was used to estimate cell viability. […] Consequently, 20 µM sample concentrations of compounds 1–3 and trolox were used for further experiments.
Figure 4 Effects of compounds 1–3 and trolox on the viability of B16F10 cells. Cells were incubated with different concentrations (5–200 µM) of compound 1 (A), 2 (B), 3 (C), and trolox (D) for 48 h, and cell viability was determined using EZ-Cytox assay. *** p < 0.001 vs. DMSO-treated.

[2] = ROS scavenging activity, DCFDA assay, cell-free in vitro; settings: SIN-1-induced oxidative stress
Description: (§1) ROS scavenging activity was determined according to the method reported by Ali et al. and Lebel and Bondy. Briefly, 2′,7′-Dichlorodihydrofluorescein-diacetate (DCFH-DA) (2.5 mM, Molecular Probes, Eugene, OR, USA) mixed with esterase (1.5 units/mL), was incubated at 37 °C for 30 min and placed on ice in the dark until immediately prior to the study. Phosphate buffer (50 mM) at pH 7.4 was used. To determine intracellular ROS scavenging activity, B16F10 cells (1 × 10^4/well) were seeded in black 96-well plates. After 24 h, the cells were incubated with DCFH-DA (20 µM) and SIN-1 ([…]) for 30 min to induce ROS generation. The fluorescence intensity of oxidized DCFH was measured using a fluorescent microplate reader at excitation and emission wavelengths of 485 and 530 nm, respectively (Tecan, Männedorf, Switzerland). Trolox was used as the positive control.
ROS may regulate melanogenesis in melanoma cells. The principle of the intracellular ROS assay is that DCF-DA spreads through the cell membrane and is enzymatically hydrolyzed to […] by esterase; DCFH then responses with ROS to yield DCF [56]. The ROS scavenging activity of compounds 1–3 was investigated in vitro by using fluorescence probes, (DCF-DA) for ROS. SIN-1 is used as an NO donor [57, 58]. […] . […] The importance of catechol moiety (3,4-dihydroxy group) for ROS scavenging activity was reported in previous studies in the literature.
Figure 5 Reactive oxygen species (ROS) scavenging activity of compound 2. The inhibitory effect of compound 2 on ROS production was evaluated. A DCFDA assay was performed to determine ROS levels. The ROS scavenger trolox was used as the positive control. The scavenging activity of compound 2 on oxidative stress induced by 10 µM SIN-1 was estimated in cell-free in vitro (A). B16F10 cells were pre-treated with compound 2 and trolox for 3 h and further treated with 10 µM SIN-1 (B).

[3] = test system: MITF, tyrosinase, TRP1, TRP2 mRNA; assay: Real-time qPCR of melanogenic genes in α-MSH- and IBMX-induced B16F10 cells; format: cell-based, mouse; settings: normalized to GAPDH
Description: RNA from cell samples was purified using the RiboEx Total RNA solution (GeneAll Biotechnology, Seoul, Korea) according to the manufacturer’s instructions. Total RNA (2 µg) treated with ribonuclease (RNase) free deoxyribonuclease (DNase) was reverse-transcribed using Hyperscript^TM One-Step RT-PCR (GeneAll Biotechnology, Seoul, Korea). Real-time qPCR was performed using the SensiFAST^TM SYBR® No-ROX dye (Bioline, London, UK.) and a CFX Connect System (Bio-Rad Laboratories, Hercules, CA, USA). Relative gene expression was calculated with the standard curve method using GAPDH as the internal control. Ct values were obtained with qPCR. Three independent tests were performed.
The effects of compound 2 on the expression of mRNA melanogenic factors were evaluated in α-MSH- and IBMX-induced B16F10 cells. […] The mRNA levels of tyrosinase, TRP1, TRP2, and MITF were quantified with real-time qPCR (Figure 7F).
Figure 7 Effects of compound 2 on melanogenic proteins and mRNA levels in α-MSH- and IBMX-induced B16F10 cells. […] The expression levels of tyrosinase, p-CREB, p-PKA, p-JNK, p-ERK, p-p38, and β-actin were determined with Western blotting in the cytosolic fraction. β-actin was used as the loading control (A,B,D,E). The expression levels of MITF and TFIIB were determined with Western blotting in the nuclear fraction. […]

B16F10 cells [4] = assay: Intracellular ROS levels in SIN-1-treated B16F10 cells; format: cell-based, mouse; settings: pre-treated 3 h, then SIN-1
Description: as §1
ROS may regulate melanogenesis in melanoma cells. The principle of the intracellular ROS assay is that DCF-DA spreads through the cell membrane and is enzymatically hydrolyzed to […] by esterase; DCFH then responses with ROS to yield DCF [56]. The ROS scavenging activity of compounds 1–3 was investigated in vitro by using fluorescence probes, (DCF-DA) for ROS. SIN-1 is used as an NO donor [57, 58]. […]
Figure 5 Reactive oxygen species (ROS) scavenging activity of compound 2. The inhibitory effect of compound 2 on ROS production was evaluated. […]

mushroom tyrosinase = mushroom tyrosinase (Agaricus bisporus, UniProt C7FF04); assay: Enzyme kinetic analysis of mushroom tyrosinase (Lineweaver–Burk and Dixon plots); format: biochemical; settings: L-tyrosine substrate 0.5–4 mM
Description: Lineweaver–Burk and Dixon plots were used to calculate the inhibition mode and inhibition constant (Ki) against mushroom tyrosinase. Kinetic parameters for various concentrations of the L-tyrosine substrate (0.5–4 mM) and inhibitors (0.4, 2, and 10 µM for compound 1; and 2, 4, and 8 µM for compound 2; and 2.5, 5, and 10 µM for compound 3, respectively) were achieved.
To elucidate the type of enzymatic inhibition, a kinetic analysis was accomplished at several concentrations of the L-tyrosine substrate and inhibitors (1–3), according to the Lineweaver–Burk and Dixon plot methods (Table 3 and Figure 2). […] Furthermore, the Dixon plot is a graphical method [plot of 1/enzyme velocity (1/V) against inhibitor concentration (I)] used to determine the type of enzymatic inhibition and the dissociation or inhibition constant (Kic) for the enzyme-inhibitor complex.
Figure 2 Enzymatic kinetics study of compounds 1–3 against tyrosinase. Lineweaver–Burk plots for the inhibition of mushroom tyrosinase of compounds 1 (A), 2 (B), and 3 (C). Dixon plots for tyrosinase inhibition of compounds 1 (D), 2 (E), and 3 (F) using L-tyrosine as the substrate.

[5] = test system: tyrosinase, p-CREB, p-PKA, MITF, p-JNK, p-ERK, p-p38; assay: Western blot analysis of melanogenic signaling proteins in α-MSH- and IBMX-induced B16F10 cells; format: cell-based, mouse
Description: Lysed samples were boiled for 10 min with gel-loading buffer (0.125 M Tris-HCl, pH 6.8, 4% SDS, 10% 2-mercaptoethanol and 0.2% bromophenol blue) at a volume ratio of 1:1. Total protein equivalents were separated with SDS-PAGE using 9–10% acrylamide gels and then transferred onto polyvinylidene fluoride membranes (Millipore, Burlington, MA, USA) at 25 V for 10 min in a semi-dry transfer system (Bio-Rad Laboratories, Hercules, CA, USA). The membranes were immediately placed in blocking buffer (5% non-fat milk) in 10 mM Tris (pH 7.5), 100 mM NaCl, and 0.1% Tween-20. The blots were blocked at room temperature for 1 h. The membranes were incubated with appropriate specific primary antibodies at 4 °C overnight and then treated with horseradish peroxidase-conjugated anti-mouse, anti-rabbit or anti-goat antibodies (1:5000) at 25 °C for 1 h (Santa Cruz Biotechnology, Dallas, TX, USA). Protein bands were visualized using the SuperSignal® West Pico Chemiluminescent Substrate kit (Advansta, San Jose, CA, USA) and Davinch-Chemi^TM (Davinch-K, Seoul, Korea).
It is important to determine whether the inhibition of melanin synthesis by compound 2 is related to melanogenesis signaling and gene expression. […] MITF, a leucine zipper transcription factor, activates the expression of multiple genes encoding enzymes involved in the conversion of tyrosine into melanin, resulting in increased levels of these melanin-producing proteins. […] The skin is site of oxidative stress due to exposure to daylight and environmental oxidizing pollutants. It is known that ROS stimulates α-MSH- and IBMX-induced production in melanoma cells leading to melanogenesis by upregulating MITF, a transcription factor that induces tyrosinase gene expression. […] However, the levels of phosphorylated p38 were not affected by treatment with compound 2. In our study, both p-JNK and p-ERK were decreased by compound 2.
Figure 7 Effects of compound 2 on melanogenic proteins and mRNA levels in α-MSH- and IBMX-induced B16F10 cells. […] The expression levels of tyrosinase, p-CREB, p-PKA, p-JNK, p-ERK, p-p38, and β-actin were determined with Western blotting in the cytosolic fraction. β-actin was used as the loading control (A,B,D,E). The expression levels of MITF and TFIIB were determined with Western blotting in the nuclear fraction. TFIIB was used as the loading control (C). Relative mRNA levels of the melanogenic genes MITF, Tyrosinase, Trp1, and Trp2 in the cells were quantified using real-time qPCR and normalized to the GAPDH mRNA level (F).

B16F10 cells [6] = assay: Melanin contents in α-MSH and IBMX-induced B16F10 cells; settings: α-MSH and IBMX 48 h, 5, 10 and 20 µM
Description: All results were standardized to the total protein concentration of the cell lysates using the bicinchoninic acid (BCA) reagent (Thermo Fisher Scientific, Waltham, MA, USA).

[7] = cytosolic fraction, 5, 10 and 20 µM

mushroom tyrosinase, sequence (C7FF04 1-392): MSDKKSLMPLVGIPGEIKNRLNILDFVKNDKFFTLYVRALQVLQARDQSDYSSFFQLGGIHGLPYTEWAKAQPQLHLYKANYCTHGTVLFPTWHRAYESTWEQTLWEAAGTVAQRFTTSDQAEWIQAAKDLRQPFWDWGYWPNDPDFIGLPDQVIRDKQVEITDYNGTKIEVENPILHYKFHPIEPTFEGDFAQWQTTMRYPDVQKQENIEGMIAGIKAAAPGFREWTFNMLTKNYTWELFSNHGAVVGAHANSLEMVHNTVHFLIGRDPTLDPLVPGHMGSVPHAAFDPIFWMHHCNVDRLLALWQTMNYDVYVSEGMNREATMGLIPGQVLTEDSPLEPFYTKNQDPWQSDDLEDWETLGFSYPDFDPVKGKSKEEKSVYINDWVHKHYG

SMILES: COc1ccc(/C=c2\sc3nc4ccccc4n3c2=O)c(OC)c1 [Compound 9]
- melting point: 250.1 to 257.5 °C

SMILES: Cc1c(C)c2c(c(C)c1O)CCC(C)(C(=O)O)O2 (stereo not shown) [Trolox, reference compound]
- cell viability (B16F10 cells [1]): did not significantly affect cell viability at concentrations up to 20 µM
- IC50 [2]: 13.2 ± 0.73 µM

SMILES: O=c1/c(=C/c2ccccc2O)sc2nc3ccccc3n12 [Compound 10]
- melting point: 244.2 to 245.2 °C

SMILES: O=c1/c(=C/c2ccc(O)c(O)c2)sc2nc3ccccc3n12 [Compound 2]
- mRNA levels of tyrosinase, TRP1, TRP2 and MITF [3]: significantly inhibited the expression
- melting point: ≥ 300 °C
- SIN-1-induced ROS generation in cells (B16F10 cells [4]): dose-dependently scavenged ROS; also recorded: reduced SIN-1-induced ROS generation in a dose-dependent manner
- Inhibition Type (mushroom tyrosinase): Competitive
- IC50 [2]: 2.36 ± 0.48 µM
- expression of tyrosinase, phosphorylated CREB and PKA [5, 7]: decreased their expression on these proteins in a dose-dependent manner
- levels of phosphorylated JNK and ERK [5, 7]: decreased the levels of phosphorylated JNK and ERK in a concentration-dependent manner
- levels of phosphorylated p38 [5, 7]: not affected
- MITF levels ([5]; nuclear fraction, 5, 10 and 20 µM): significantly suppressed MITF levels

SMILES: O=c1/c(=C/c2ccc(O)cc2O)sc2nc3ccccc3n12 [Compound 3]
- melting point: 263.7 to 268.3 °C
- Inhibition Type (mushroom tyrosinase): Competitive
- IC50 [2]: ≥ 50 µM

SMILES: CCOc1cc(/C=c2\sc3nc4ccccc4n3c2=O)ccc1O [Compound 5]
- melting point: 210.7 °C

SMILES: COc1cc(/C=c2\sc3nc4ccccc4n3c2=O)ccc1O [Compound 4]
- melting point: 262.3 to 264 °C

SMILES: O=c1/c(=C/c2ccc(O)c(Br)c2)sc2nc3ccccc3n12 [Compound 13]
- melting point: 293.7 to 297 °C

SMILES: COc1cc(/C=c2\sc3nc4ccccc4n3c2=O)cc(OC)c1O [Compound 12]
- melting point: 261.9 to 269.1 °C

SMILES: COc1ccc(/C=c2\sc3nc4ccccc4n3c2=O)cc1 [Compound 7]
- melting point: 239.5 to 241.8 °C

SMILES: COc1ccc(/C=c2\sc3nc4ccccc4n3c2=O)cc1O [Compound 6]
- melting point: 249.6 to 252.1 °C

SMILES: COc1cc(/C=c2\sc3nc4ccccc4n3c2=O)cc(OC)c1OC [Compound 11]
- melting point: 215.1 °C

SMILES: COc1ccc(/C=c2\sc3nc4ccccc4n3c2=O)cc1OC [Compound 8]
- melting point: 236.7 to 236.9 °C

SMILES: O=c1/c(=C/c2ccc(O)cc2)sc2nc3ccccc3n12 [Compound 1]
- melting point: ≥ 300 °C
- effect on melanin contents (B16F10 cells [6]): reduced the melanin content at 20 µM
- Inhibition Type (mushroom tyrosinase): Competitive
- IC50 [2]: ≥ 50 µM
